# Measurements from article PMC9098178, “SAR of Novel 3-Arylisoquinolinones: meta-Substitution on the Aryl Ring Dramatically Enhances Antiproliferative Activity through Binding to Microtubules” (Journal of Medicinal Chemistry, 2022).
# Key:
# MCF-7 = assay: SRB antiproliferative assay, MCF-7; assay type: cell-based, human; conditions: Homo sapiens, MCF7, 96 h treatment, mean ± SEM, read-out: IC50 MCF-7 (prescreen)
# Protocol: Initially, the human breast cancer cell line MCF-7 was used in a prescreen analysis of the anticancer activity of 3-arylisoquinolinones. The cells were treated with serial concentrations of compounds 2–8 for 96 h prior to the assessment of proliferation using the sulforhodamine B (SRB) assay. For each compound, the concentration required to inhibit cell growth by 50% compared to that of the untreated control cells (IC50) was determined (Table 1).
# (§1) All cell lines used in the study were human-derived and purchased from ATCC (Manassas, USA). Breast adenocarcinoma MCF-7 and MDA-MB-231 cell lines were cultured in DMEM. Hepatocellular carcinoma HepG2 and SNU423 cell lines were grown in MEME combined with 1% (v/v) nonessential amino acids and RPMI supplemented with 2 mM glutamine, respectively. Lung adenocarcinoma A549 and colorectal carcinoma HCT116 cells were grown in RPMI (+2 mM glutamine). All previous media were further supplemented with 10% heat-inactivated fetal bovine serum. The immortalized, normal liver THLE-3 cells were grown in BEGM (Lonza, Cat# CC-3170) onto precoated vessels according to ATCC’s instructions. Human umbilical vein endothelial cells (HUVECs) were cultured in EGM-2 (Lonza, Cat# CC-3162). All of the cells were maintained at 37 °C and 5% CO2 in a humidified incubator.
# (§2) Screening of the antiproliferative activity of 3-arylisoquinolinones was performed using the SRB assay as previously described.[56] Exponentially growing HepG2, SNU423, MDA-MB-231, MCF-7, A549, HCT116, THLE-3, and HUVECs were seeded in 96-well plates at densities of 3000, 2000, 1500, 2500, 1000, 1000, 4000, and 4000 cells/well, respectively. These densities were experimentally selected so that the DMSO-treated cells (control) were approximately 80–90% confluent at the assay’s endpoint, and their optical density (OD) values fell within the assay’s linear range. After overnight incubation, the cells were treated with a range of concentrations of the respective compounds for 96 h, 24 h followed by 72 h compound-free incubation or 24 h (for HUVECs only). After treatment, cell monolayers were fixed with 10% (w/v) trichloroacetic acid for 1 h at 4 °C, washed, and dried. Then, the cells were exposed to 0.4% (w/v) SRB dye (prepared in 1% (v/v) acetic acid; Botium, Cat# 80100) for 15 min followed by several 1% acetic acid washing and then drying. Finally, the cellular protein-bound SRB was thoroughly dissolved in 10 mM Tris base, and the OD values were read at 510 nm using a plate reader (μQuant Microplate Spectrophotometer, Biotek, U.K.) coupled with Gen5 software (BioTek, U.K.). Compound-induced changes in cell growth were inferred from changes in OD values. Cell growth was calculated using the following formula: cell growth (%) = (ODtest/ODcontrol) × 100.
# MDA-MB-231 = assay: SRB antiproliferative assay, MDA-MB-231; assay type: cell-based, human; conditions: Homo sapiens, MDA-MB-231, 96 h treatment, mean ± SEM, read-out: IC50 MDA-MB-231
# Protocol: (§3) In light of this substantial change in activity between the meta and para compounds, a more comprehensive analysis of the antiproliferative activity was performed for the meta-/para-3-arylisoquinolinone pairs 2 and 3, 4, and 5, as well as 6. A panel of breast (MDA-MB-231), liver (HepG2, SNU423), lung (A549), and colon (HCT116) cancer cell lines were treated with the five 3-arylisoquinolinone analogs for 96 h followed by the SRB assay. The dose–response curves (including those for MCF-7) are presented in Figure S22, and their relevant IC50 values are listed in Table 1. […] The differential activity between meta- and para-3-arylisoquinolinones was reproduced in the National Cancer Institute (NCI) one-dose screen using a panel of 59 cancer cell lines (Figure S23).
# as §1, §2
# HepG2 = assay: SRB antiproliferative assay, HepG2; assay type: cell-based, human; conditions: Homo sapiens, HepG2, 96 h treatment, mean ± SEM, read-out: IC50 HepG2
# Protocol: as §3, §1, §2
# A549 = assay: SRB antiproliferative assay, A549; assay type: cell-based, human; conditions: Homo sapiens, A549, 96 h treatment, mean ± SEM, read-out: IC50 A549
# Protocol: as §3, §1, §2
# HCT116 = assay: SRB antiproliferative assay, HCT116; assay type: cell-based, human; conditions: Homo sapiens, HCT-116, 96 h treatment, mean ± SEM, read-out: IC50 HCT116
# Protocol: as §3, §1, §2
# HUVECs [1] = assay: SRB assay of endothelial cell proliferation; assay type: cell-based; conditions: 24 h, up to 10 μM
# Protocol: Compound 4 was further elucidated whether it blocked the formation of capillary-like tubes and disrupted the already existing tubes of HUVECs as a result of inducing endothelial cell death. Accordingly, the growth of HUVECs treated with 4 was investigated using the SRB assay. HUVECs were plated on 96-well plates without prior coating with Matrigel and then exposed to different concentrations of 4 for 24 h.
# All cell lines used in the study were human-derived and purchased from ATCC (Manassas, USA). Breast adenocarcinoma MCF-7 and MDA-MB-231 cell lines were cultured in DMEM. Hepatocellular carcinoma HepG2 and SNU423 cell lines were grown in MEME combined with 1% (v/v) nonessential amino acids and RPMI supplemented with 2 mM glutamine, respectively. Lung adenocarcinoma A549 and colorectal carcinoma HCT116 cells were grown in RPMI (+2 mM glutamine). […]
# Screening of the antiproliferative activity of 3-arylisoquinolinones was performed using the SRB assay as previously described.[56] […] Finally, the cellular protein-bound SRB was thoroughly dissolved in 10 mM Tris base, and the OD values were read at 510 nm using a plate reader (μQuant Microplate Spectrophotometer, Biotek, U.K.) coupled with Gen5 software (BioTek, U.K.). […] Cell growth was calculated using the following formula: cell growth (%) = (ODtest/ODcontrol) × 100.
# HUVECs [2] = assay: Cytoskeleton immunofluorescence; assay type: cell-based, human; conditions: 0.5, 1 μM, 24 h
# From the text: The disruption was characterized by shortened microtubules with outer blebbing filled with tubulin and thicker and brighter actin fibers (stress fibers). Many rounded and retracted cells were also observed in HUVECs treated with 4. […] Taken together, 4 induced morphological alterations in endothelial cells are possibly the reason behind the disruption of the preexisting tubes of HUVECs cultured on Matrigel. […] Throughout the next steps, all of the reagents were removed by washing, flicking, and gently dabbing the slide against a tissue paper. The cells were then washed with PBS containing calcium and magnesium (Sigma, Cat# D1283), fixed with 10% formalin solution (Sigma, Cat# HT5014) for 15 min, and permeabilized with 0.2% (v/v) Triton X-100 for 5 min. Next, the cells were exposed to 1 h incubation with blocking buffer made of 10% (v/v) normal goat serum (Vector Laboratories, Cat# S-1000), 1% (w/v) bovine serum albumin (Sigma, Cat# A9418), and 0.3 M glycine in PBS-T (0.05% Tween-20 in PBS). The cells were then incubated with rabbit α-tubulin primary antibody (1:1000 in the blocking buffer, Abcam, Cat# ab52866) for 2 h at RT after three times washing with PBS-T, each for 5 min. […] Finally, the cytoskeleton was visualized at 63x, oil-based magnification using fluorescence, inverted microscope (Leica DMI6000B, Leica Microsystems). […]
SMILES,IC50 (MCF-7),IC50 (MDA-MB-231),IC50 (HepG2),IC50 (A549),IC50 (HCT116),effect on proliferation of HUVECs (HUVECs [1]),effect on cytoskeleton network (actin and microtubules) (HUVECs [2])
"O=c1[nH]c(-c2ccc(F)cc2)cc2cc(F)ccc12 [compound 5, 6-Fluoro-3-(4-fluorophenyl)isoquinolin-1(2H)-one]",> 50 µM,> 50 µM,> 50 µM,> 50 µM,> 50 µM,,
"O=c1[nH]c(-c2cccc(F)c2)cc2cc(F)ccc12 [compound 4, 6-Fluoro-3-(3-fluorophenyl)isoquinolin-1(2H)-one]",,,,,,not able to significantly diminish the proliferation of HUVECs,marked disruption in the cytoskeleton network
